Literature values as cited in patent US8529907B2, “Methods of treating ophthalmic disorders” (Nikken Sohonsha Corporation, priority 2008, dated 2013).

Columns and labels:
[1] = system: mutant opsin P23H
[2] = system: RP patients; conditions: 15,000 U/d
[3] = system: Rpe65-deficient mice

In the case of `CC1=C(/C=C/C(C)=C/C=C/C(C)=C/C=O)C(C)(C)CCC1` [11-cis-retinal], the “rescue of mutant opsin P23H” value [1] is given as “effectively rescued”.

For `CCCCCCCCCCCCCCCC(=O)OC/C=C(C)/C=C/C=C(C)/C=C/C1=C(C)CCCC1(C)C` [Vitamin A palmitate], the “slowing of the progress of RP” value [2] is listed as “about 2 % per year”.

In the case of `CC1=C(/C=C/C(C)=C\C=C\C(C)=C\C=O)C(C)(C)CCC1` [9-cis-retinal], the “duration of supported rod retinal function post-treatment” value ([3]; early intervention) is given as “more than 6 months”, the retinal ester accumulation ([3]; early intervention) is given as “significantly attenuated” and the “rod photopigment and rod physiology” value ([3]; oral, within 48 h, Rpe65-deficient mice) is given as “formation of rod photopigment and dramatic improvement in rod physiology”. The “rescue of mutant opsin P23H” value [1] was “effectively rescued”.
